pIC50: −log10 of the molar value. The source made the active and inactive calls. No cut-off for these calls is given here.
Tests used:
[1] = target: Serine/threonine-protein kinase 16 (Homo sapiens) (UniProt O75716); test: Inhibition of MPSK1 Lys2 labeling site in human Huh-7 cells at 1 uM by KiNativ Profiling analysis relative to control; assay type: cell-based
[2] = target: Mitogen-activated protein kinase kinase kinase kinase 5 (Homo sapiens) (UniProt Q9Y4K4); test: Inhibition of MAP4K5 (unknown origin) at 1 uM by Ambit Kinomescan binding assay relative to control; values are per cent of control
[3] = system: Receptor-type tyrosine-protein kinase FLT3 (Homo sapiens), P36888 [D835H]; test: Inhibition of FLT3 D835H mutant (unknown origin) at 1 uM by Ambit Kinomescan binding assay relative to control; values are per cent of control
[4] = target: T1, Receptor-interacting serine/threonine-protein kinase 4 (Homo sapiens) (UniProt P57078); test: Inhibition of ANKRD3 Lys1 labeling site in human A-375 cells at 0.5 uM by KiNativ Profiling analysis relative to control; assay type: cell-based
T1 sequence (whole entry): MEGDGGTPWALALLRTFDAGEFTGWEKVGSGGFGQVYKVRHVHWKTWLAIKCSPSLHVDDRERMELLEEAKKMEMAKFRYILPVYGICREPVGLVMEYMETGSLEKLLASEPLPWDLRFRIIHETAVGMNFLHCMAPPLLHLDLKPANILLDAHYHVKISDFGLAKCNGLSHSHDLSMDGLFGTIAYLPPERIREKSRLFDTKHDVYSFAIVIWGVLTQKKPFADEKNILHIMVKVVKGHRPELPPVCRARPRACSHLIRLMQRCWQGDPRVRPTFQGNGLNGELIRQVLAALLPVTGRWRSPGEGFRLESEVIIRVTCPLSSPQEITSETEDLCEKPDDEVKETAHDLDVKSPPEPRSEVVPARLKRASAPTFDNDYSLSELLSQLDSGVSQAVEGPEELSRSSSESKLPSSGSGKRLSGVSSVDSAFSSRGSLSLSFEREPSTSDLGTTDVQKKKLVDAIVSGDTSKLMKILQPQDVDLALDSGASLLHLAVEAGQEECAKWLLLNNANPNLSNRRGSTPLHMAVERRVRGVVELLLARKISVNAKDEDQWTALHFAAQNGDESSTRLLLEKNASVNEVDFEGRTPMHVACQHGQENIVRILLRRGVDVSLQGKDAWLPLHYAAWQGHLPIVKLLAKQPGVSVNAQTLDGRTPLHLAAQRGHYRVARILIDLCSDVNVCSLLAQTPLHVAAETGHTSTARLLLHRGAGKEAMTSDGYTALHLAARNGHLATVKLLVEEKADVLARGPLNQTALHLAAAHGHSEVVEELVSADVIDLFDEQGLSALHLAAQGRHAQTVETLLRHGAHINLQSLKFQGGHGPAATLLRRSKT

[5] = target: Serine/threonine-protein kinase Nek4 (Homo sapiens) (UniProt P51957); test: Inhibition of NEK4 Lys2 labeling site in human A-375 cells at 5 uM by KiNativ Profiling analysis relative to control; assay type: cell-based
[6] = target: T2, Myotonin-protein kinase (Homo sapiens) (UniProt Q09013); test: Inhibition of DMPK (unknown origin) at 1 uM by Ambit Kinomescan binding assay relative to control; values are per cent of control
T2 sequence (whole entry): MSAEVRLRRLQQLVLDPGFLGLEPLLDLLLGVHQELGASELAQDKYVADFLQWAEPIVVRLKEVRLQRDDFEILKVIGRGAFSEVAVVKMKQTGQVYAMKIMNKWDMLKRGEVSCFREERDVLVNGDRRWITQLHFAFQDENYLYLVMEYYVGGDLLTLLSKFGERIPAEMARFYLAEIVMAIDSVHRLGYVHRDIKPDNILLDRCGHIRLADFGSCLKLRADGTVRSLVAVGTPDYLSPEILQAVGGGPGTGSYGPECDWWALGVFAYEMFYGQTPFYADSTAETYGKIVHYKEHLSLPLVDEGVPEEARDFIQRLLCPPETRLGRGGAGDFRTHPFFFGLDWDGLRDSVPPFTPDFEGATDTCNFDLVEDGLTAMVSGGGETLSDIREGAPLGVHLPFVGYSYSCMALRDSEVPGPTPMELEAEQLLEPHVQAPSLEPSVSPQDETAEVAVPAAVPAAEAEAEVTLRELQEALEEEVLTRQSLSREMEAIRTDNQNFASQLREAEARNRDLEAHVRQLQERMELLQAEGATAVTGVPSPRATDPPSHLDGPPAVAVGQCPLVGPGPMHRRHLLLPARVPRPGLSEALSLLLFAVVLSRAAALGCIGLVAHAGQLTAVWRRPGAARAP

[7] = target: Phosphatidylinositol 4-phosphate 5-kinase type-1 gamma (Homo sapiens) (UniProt O60331); test: Inhibition of PIP5K1C (unknown origin) at 1 uM by Ambit Kinomescan binding assay relative to control; values are per cent of control
[8] = Inhibition of KHS1 (unknown origin) Lys1 labeling site by KiNativ Profiling analysis; design: species or system Homo sapiens
[9] = target: T2, Myotonin-protein kinase (Homo sapiens); test: Inhibition of DMPK1 K2 labeling site in human Huh-7 cells at 1 uM by KiNativ Profiling analysis relative to control; assay type: cell-based
[10] = target: TRAF2 and NCK-interacting protein kinase (Homo sapiens) (UniProt Q9UKE5); test: Inhibition of TNIK K1 labeling site in human Huh-7 cells at 10 uM by KiNativ Profiling analysis relative to control; assay type: cell-based
TRAF2 and NCK-interacting protein kinase (Homo sapiens), sequence (Q9UKE5 whole entry, looked up): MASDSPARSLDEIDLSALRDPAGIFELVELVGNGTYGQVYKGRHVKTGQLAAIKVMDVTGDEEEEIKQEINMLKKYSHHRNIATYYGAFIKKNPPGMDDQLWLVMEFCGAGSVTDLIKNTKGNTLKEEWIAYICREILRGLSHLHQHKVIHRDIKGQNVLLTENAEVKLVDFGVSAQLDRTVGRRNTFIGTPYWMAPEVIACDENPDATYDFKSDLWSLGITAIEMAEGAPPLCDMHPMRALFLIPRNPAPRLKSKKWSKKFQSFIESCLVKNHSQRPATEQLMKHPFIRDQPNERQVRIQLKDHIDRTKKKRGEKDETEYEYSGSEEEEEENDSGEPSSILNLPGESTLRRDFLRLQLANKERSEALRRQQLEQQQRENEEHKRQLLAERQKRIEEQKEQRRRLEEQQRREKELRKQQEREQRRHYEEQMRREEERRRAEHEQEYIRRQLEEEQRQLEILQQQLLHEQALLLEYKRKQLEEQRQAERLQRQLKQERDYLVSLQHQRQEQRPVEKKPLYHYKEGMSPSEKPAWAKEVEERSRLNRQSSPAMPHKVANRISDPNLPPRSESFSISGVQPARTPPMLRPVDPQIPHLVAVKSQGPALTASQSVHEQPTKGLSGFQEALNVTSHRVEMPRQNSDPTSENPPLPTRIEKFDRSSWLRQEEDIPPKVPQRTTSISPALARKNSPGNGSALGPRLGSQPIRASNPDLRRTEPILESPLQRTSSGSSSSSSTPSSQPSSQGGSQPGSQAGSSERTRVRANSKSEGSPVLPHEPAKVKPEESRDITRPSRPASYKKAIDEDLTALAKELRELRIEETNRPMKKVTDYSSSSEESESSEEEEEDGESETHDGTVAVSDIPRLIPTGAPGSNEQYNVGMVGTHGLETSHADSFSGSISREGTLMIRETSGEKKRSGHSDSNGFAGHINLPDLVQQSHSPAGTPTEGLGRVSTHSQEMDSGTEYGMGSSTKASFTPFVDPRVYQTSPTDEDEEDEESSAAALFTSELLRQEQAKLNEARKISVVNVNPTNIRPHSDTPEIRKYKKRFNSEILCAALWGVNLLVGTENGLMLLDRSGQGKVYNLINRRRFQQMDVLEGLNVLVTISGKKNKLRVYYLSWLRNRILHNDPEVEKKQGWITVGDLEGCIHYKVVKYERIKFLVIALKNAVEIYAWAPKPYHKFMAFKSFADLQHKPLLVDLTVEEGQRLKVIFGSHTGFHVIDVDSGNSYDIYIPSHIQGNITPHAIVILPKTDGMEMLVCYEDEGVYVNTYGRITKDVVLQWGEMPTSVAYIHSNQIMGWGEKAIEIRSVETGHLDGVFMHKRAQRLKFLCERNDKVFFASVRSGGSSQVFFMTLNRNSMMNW

[11] = target: Mitogen-activated protein kinase 8 (Homo sapiens, UniProt P45983); test: Inhibition of JNK1 (unknown origin) at 10 uM by Ambit Kinomescan binding assay relative to control
Mitogen-activated protein kinase 8, sequence (P45983 whole entry): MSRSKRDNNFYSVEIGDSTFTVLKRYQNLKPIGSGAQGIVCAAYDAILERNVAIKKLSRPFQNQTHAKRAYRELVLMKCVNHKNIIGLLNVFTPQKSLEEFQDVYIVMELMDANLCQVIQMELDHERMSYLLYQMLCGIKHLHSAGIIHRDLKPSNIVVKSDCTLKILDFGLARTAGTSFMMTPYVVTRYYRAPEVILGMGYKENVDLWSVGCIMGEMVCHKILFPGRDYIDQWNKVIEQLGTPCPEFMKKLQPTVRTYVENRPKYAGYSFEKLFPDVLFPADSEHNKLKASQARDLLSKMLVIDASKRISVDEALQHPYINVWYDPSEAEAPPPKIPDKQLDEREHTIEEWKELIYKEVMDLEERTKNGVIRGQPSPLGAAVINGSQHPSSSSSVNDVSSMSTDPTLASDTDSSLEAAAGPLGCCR

[12] = target: Cyclin-dependent kinase 11B (Homo sapiens) (UniProt P21127); test: Inhibition of CDK11 (unknown origin) at 10 uM by Ambit Kinomescan binding assay relative to control; values are per cent of control
Cyclin-dependent kinase 11B (Homo sapiens), sequence (P21127 whole entry): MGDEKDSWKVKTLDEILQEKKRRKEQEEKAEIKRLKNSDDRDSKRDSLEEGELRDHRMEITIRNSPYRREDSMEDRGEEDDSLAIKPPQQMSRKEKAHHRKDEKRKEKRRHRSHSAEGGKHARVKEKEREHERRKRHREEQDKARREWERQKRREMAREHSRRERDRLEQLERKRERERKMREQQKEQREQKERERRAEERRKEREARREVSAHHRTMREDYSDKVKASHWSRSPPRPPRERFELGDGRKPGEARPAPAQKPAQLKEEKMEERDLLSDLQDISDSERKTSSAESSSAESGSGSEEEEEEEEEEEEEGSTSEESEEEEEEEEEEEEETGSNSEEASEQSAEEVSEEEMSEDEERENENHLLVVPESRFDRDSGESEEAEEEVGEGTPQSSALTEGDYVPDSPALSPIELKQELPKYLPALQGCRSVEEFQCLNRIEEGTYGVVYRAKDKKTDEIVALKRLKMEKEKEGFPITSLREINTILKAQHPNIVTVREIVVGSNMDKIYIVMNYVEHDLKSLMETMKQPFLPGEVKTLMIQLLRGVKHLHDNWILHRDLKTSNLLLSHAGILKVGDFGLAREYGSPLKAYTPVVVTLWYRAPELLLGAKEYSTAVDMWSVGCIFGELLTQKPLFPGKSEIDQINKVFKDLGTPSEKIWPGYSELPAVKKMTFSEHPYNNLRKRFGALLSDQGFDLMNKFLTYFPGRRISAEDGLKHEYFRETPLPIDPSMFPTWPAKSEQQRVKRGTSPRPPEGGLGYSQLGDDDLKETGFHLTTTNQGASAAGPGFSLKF

[13] = target: Serine/threonine-protein kinase Chk2 (Homo sapiens) (UniProt O96017); test: Inhibition of CHK2 K2 labeling site in human Huh-7 cells at 1 uM by KiNativ Profiling analysis relative to control; assay type: cell-based
[14] = target: Maternal embryonic leucine zipper kinase (Homo sapiens) (UniProt Q14680); test: Inhibition of MELK (unknown origin) at 10 uM by Ambit Kinomescan binding assay
Maternal embryonic leucine zipper kinase (Homo sapiens), sequence (Q14680 whole entry, looked up): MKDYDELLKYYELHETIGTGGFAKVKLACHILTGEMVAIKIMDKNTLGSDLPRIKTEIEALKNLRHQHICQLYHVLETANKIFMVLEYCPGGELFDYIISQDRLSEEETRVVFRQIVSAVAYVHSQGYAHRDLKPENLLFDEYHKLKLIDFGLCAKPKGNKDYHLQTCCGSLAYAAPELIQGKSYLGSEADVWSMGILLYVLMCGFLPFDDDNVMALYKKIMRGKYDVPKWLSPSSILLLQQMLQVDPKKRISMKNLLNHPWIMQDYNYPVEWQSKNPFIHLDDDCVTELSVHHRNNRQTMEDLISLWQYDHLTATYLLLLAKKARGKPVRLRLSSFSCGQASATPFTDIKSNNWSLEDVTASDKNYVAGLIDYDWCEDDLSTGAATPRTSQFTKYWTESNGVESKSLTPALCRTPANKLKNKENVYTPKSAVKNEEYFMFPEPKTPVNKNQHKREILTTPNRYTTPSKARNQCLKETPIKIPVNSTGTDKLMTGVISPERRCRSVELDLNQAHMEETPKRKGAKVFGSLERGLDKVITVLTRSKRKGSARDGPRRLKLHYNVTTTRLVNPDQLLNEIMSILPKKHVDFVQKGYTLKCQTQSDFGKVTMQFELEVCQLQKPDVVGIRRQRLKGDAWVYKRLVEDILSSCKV

[15] = target: Cyclin-dependent kinase 18 (Homo sapiens) (UniProt Q07002); test: Inhibition of PCTK3 (unknown origin) at 10 uM by Ambit Kinomescan binding assay relative to control
Cyclin-dependent kinase 18 (Homo sapiens), sequence (Q07002 whole entry): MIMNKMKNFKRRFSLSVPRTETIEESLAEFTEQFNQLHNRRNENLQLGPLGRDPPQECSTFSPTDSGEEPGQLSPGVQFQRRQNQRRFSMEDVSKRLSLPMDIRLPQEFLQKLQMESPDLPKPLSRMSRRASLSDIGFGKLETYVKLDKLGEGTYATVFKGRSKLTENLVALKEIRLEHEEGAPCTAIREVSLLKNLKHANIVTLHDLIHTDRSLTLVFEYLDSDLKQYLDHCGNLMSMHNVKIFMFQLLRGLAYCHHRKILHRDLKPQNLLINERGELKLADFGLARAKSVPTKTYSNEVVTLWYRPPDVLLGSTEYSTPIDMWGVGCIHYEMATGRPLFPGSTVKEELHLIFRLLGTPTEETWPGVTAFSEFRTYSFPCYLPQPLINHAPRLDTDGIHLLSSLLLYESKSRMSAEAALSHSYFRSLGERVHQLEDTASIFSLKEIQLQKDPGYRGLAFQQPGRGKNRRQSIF

[16] = target: Interferon-induced, double-stranded RNA-activated protein kinase (Homo sapiens) (UniProt P19525); test: Inhibition of PKR K2 labeling site in human Huh-7 cells at 1 uM by KiNativ Profiling analysis relative to control; assay type: cell-based
[17] = target: Serine/threonine-protein kinase N2 (Homo sapiens) (UniProt Q16513); test: Inhibition of PKN2 (unknown origin) at 10 uM by Ambit Kinomescan binding assay
Serine/threonine-protein kinase N2 (Homo sapiens), sequence (Q16513 whole entry, looked up): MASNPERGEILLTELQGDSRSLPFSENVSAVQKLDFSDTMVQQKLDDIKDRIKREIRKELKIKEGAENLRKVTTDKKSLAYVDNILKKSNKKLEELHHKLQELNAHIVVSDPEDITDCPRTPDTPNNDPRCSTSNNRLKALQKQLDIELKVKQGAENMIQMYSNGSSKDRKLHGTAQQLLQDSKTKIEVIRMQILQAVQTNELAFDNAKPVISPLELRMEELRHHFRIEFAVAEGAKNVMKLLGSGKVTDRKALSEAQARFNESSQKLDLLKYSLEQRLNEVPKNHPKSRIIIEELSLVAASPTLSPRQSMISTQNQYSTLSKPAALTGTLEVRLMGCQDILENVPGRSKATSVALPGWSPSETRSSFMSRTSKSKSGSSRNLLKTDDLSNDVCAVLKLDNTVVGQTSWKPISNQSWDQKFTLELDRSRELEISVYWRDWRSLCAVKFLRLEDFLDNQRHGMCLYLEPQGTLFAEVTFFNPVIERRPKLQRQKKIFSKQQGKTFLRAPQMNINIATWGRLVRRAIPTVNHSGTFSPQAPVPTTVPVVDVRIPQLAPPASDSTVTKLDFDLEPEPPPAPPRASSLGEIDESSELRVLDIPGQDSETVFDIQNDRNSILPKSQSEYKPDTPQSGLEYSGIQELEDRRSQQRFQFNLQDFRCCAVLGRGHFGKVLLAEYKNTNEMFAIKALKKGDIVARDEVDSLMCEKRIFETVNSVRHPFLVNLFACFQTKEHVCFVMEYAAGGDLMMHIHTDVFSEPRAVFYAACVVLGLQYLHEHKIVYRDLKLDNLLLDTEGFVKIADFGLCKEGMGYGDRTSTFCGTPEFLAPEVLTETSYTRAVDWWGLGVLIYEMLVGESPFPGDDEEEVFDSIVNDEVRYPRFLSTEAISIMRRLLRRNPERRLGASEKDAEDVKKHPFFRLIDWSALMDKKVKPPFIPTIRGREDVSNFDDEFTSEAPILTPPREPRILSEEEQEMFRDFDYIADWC

Serine/threonine-protein kinase 16 (Homo sapiens), sequence (O75716 whole entry): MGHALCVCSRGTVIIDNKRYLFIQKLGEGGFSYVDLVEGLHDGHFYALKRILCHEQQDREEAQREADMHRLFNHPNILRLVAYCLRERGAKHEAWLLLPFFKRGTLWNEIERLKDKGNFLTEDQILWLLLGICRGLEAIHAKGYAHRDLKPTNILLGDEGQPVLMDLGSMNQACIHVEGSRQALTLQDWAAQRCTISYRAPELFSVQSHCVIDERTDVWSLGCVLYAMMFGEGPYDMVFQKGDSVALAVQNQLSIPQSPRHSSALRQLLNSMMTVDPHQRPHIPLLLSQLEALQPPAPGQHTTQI

CNc1cc(Oc2cc(C(=O)Nc3cc(N4CCN(C)CC4)cc(C(F)(F)F)c3)ccc2C)ncn1
inhibition [1]: 33.2%

CCN1CCN(Cc2ccc(NC(=O)c3ccc(C)c(/C=C/c4cnc5[nH]ccc5c4OC)c3)cc2C(F)(F)F)CC1
residual activity [2]: 7.2% | residual activity [3]: 2.6% | inhibition [4]: 23.7% | inhibition [5]: 50.4% | residual activity [6]: 100% | percent of control [7]: 100% | pIC50 [8]: 5.92

CCN1CCN(Cc2ccc(NC(=O)c3ccc(C)c(Oc4ccnc5[nH]ccc45)c3)cc2C(F)(F)F)CC1
inhibition [9]: -7.6% | inhibition [10]: 74.5% | inhibition [11]: 0% | % of control [12]: 0.1% | inhibition [13]: 17.5% | inhibition [14]: inactive | inhibition [15]: 1.8% | inhibition [16]: 4% | inhibition [17]: inactive

— ChEMBL document CHEMBL5696442, “Discovery of type II inhibitors of TGFβ-activated kinase 1 (TAK1) and mitogen-activated protein kinase kinase kinase kinase 2 (MAP4K2)” (J Med Chem, 2015)
